Measurements from patent US20210038503A1, “COMPOSITIONS AND METHODS FOR TOPICAL TREATMENT OF DERMAL AND OCULAR CONDITIONS” (GABADERM, INC., priority 2018, published 2021).
Entries after “also recorded” stand apart in the source; their conditions may differ. Where two headings read alike, the source gives them in different places.

Tests used:
[1] = Experimental: Stability was determined visually by separation of the emulsion and also analytically by changes in measured concentration of the cream and/or the formation of degradation products. […] Heavier oils include petrolatum or mineral oil.
oxalobenzone treated ear = test: Oxalobenzone induced mouse ear inflammatory model (ear thickness); assay type: in vivo; details: for Inflammation (ear thickness): 100 μl at 1 hour and 6 hours post challenge, 24 hours and 48 hours
Experimental: Animals were sensitized to oxalbenzone on the abdomen on day 2 with 150 μl 3% oxalbenzone. Animals were challenged on day 5 with 1% oxalobenzone to both sides of one ear. This served as an in vivo pharmacological disease models for psoriasis and atopic dermatitis.
Ear thickness was measured with calipers at 24 hours and 48 hours and compared to contralateral non-challenged ear. Ear thickness served as an indication of swelling due to inflammation. The greater the ear thickness, the greater the inflammation.

psoriatic lesions = details: for Number of psoriatic lesions: 2% propofol solution twice daily
Remark: listed apart in the source
Source text: Areas of the lesion are roughly outlined.
The plaque psoriatic lesion was raised and more lightly colored than the unaffected skin.

[2] = estimated 250 times lower than rat plasma levels
[3] = in vivo; cited from earlier work
[4] = in vivo; cited from earlier work; remark: listed apart in the source
[5] = local administration of propofol
[6] = 20% propofol-propylene glycol plus 30% w/w surfactant penetration enhancer
[7] = 20% w/w propofol in propylene glycol

Which results are given for `CC(C)c1cccc(C(C)C)c1O` [propofol]?
Stability ([1]; oil-in-water or water-in-oil formulations with a heavier oil or longer chain oil (petrolatum or mineral oil)): stable; Stability ([1]; penetration enhancer limited to less than 10% w/w, particularly propofol greater than 2%): stable; Stability ([1]; propofol >10% w/w in HRT™ (gel or cream)): not stable; Stability ([1]; propofol >10% w/w in Lipoderm®): not stable; Stability ([1]; propofol >10% w/w in Medihol™ gel base): not stable; Stability ([1]; propofol >10% w/w in Vanish-Pen™ Cream base): not stable; Stability ([1]; propofol >10% w/w in VersaPro™ (lotion or cream)): not stable; Stability ([1]; propofol at 10% w/w in Lipoderm® (mineral oil-free)): not stable; Inflammation (ear thickness) (oxalobenzone treated ear; 10% w/w propofol in DMSO): significantly reduces inflammation; Inflammation (ear thickness) (oxalobenzone treated ear; 20% w/w propofol in DMSO): significantly reduces inflammation; Skin inflammation / ear swelling (oxalobenzone treated ear; topical propofol, formulation not specified at the place): reduces skin inflammation; also recorded: reduces ear swelling and inflammation; Number of psoriatic lesions (psoriatic lesions; after a week): further reduced; Number of psoriatic lesions (psoriatic lesions; after three days): reduced; Plaque psoriatic lesion height and area, left forearm (psoriatic lesions; 10% propofol in cream twice daily, over the course of treatment): diminished in height and area; Local anti-inflammatory effect (psoriatic lesions; [5]): anti-inflammatory effects locally; Sustained anti-nociceptive effect (psoriatic lesions; [5]): reduced sensation of itch and burning; Psoriatic lesions (FIG. 7 legend) (psoriatic lesions; propofol in a cream based formulation): reduced; Neurogenic inflammation (psoriatic lesions; repeated application of propofol): less neurogenic inflammation; Gutate and plaque psoriatic lesions (psoriatic lesions; topical application of propofol, summary): resolution of gutate and plaque psoriatic lesions; Acute skin reaction (redness with wheal-flare effect) (skin; 10% propofol in DMSO): significant burning and inflammation; Time to onset of burning and inflammation after treatment (skin; 10% propofol in DMSO): 10 to 15 min; Time until acute effect resolved (skin; 10% propofol in DMSO): about 90 minutes; Treatment effect despite initial inflammatory response (skin; 10% propofol in DMSO): significant treatment effect; Acute skin reaction (redness with wheal-flare effect) (skin; 10% propofol in mineral oil containing cream): did not result in this effect; Increase of plasma concentration [6]: 3 to 5 fold; Plasma concentration [6]: approximately 350 ng/ml; Increase of plasma concentration [7]: 2-3 fold; Plasma concentration [7]: 175 to 200 ng/mL; Plasma concentration (rats, 500 mg of 100% propofol on skin, ~[…] body surface area): 400 ng/mL; Plasma levels (rats, 20% w/w propofol in petrolatum (100 mg total dose), ~[…] body surface area): 50 to 100 ng/mL; Human equivalent plasma concentration [2]: 0.4 to 2 ng/mL; Plasma levels at which wakening from propofol anesthesia occurs [3]: less than 500 μg/ml; Plasma steady state levels used to maintain anesthetized state [3]: 1,000-2,000 ng/ml; Oral bioavailability [4]: < 10%
